Experimental data published in patent US20210046114A1, “HPV IMMUNOTHERAPY” (The Council of the Queensland Institute of Medical Research, priority 2018, published 2021).

Tests used:
[1] = tested on: HPV-specific T cells from HNC patients; test: HPV T-cell epitope mapping by intracellular cytokine staining (ICS); assay type: cell-based, human; settings: for T cell specificity: epitopes mapped in HNC patient T cells, Table 1; for epitope identified by fine-mapping: FIG. 5 and FIG. 6
Procedure: (§1) Peripheral blood mononuclear cells (PBMCs) from HNC patients were isolated and stimulated with HPV antigen pepmix peptide pools for either HPV16 or HPV18 in separate cultures and prepared for the intracellular cytokine staining (ICS) assay, as described above (non-stimulated controls were run in parallel). T cell response to the pepmix peptide pools was analyzed to identify individual peptides. These individual peptides were further assessed for T cell expansion and ICS analysis to identify potential epitopes. Once the 15mer peptide was identified, further mimimalization of the epitope sequence was carried out to identify the optimal T cell epitope sequence. The 15mer peptide sequences were trimmed from both N- and C-terminus to a minimal of 9-14 amino acid long peptides. Once the minimal peptide sequence was identified, further confirmation was carried out using limiting dose titration ICS assay. After mapping minimal epitope sequence, the HLA restriction of the epitope was identified by stimulating T cells using peptide loaded HLA-matched and mismatched PHA blasts (PHA).
Representative data showing that HPV-specific T cells from HNC patients recognized HPV16-E6, HPV18-E6 antigens can be found in FIGS. 1 and 2, respectively. In order to map the T cell epitope, further analysis was carried out using sub pools of E6 peptides. […] When analyzed on an HPV peptide matrix layout, the common peptide sequence among the responding pools was identified.

[2] = tested on: HPV-specific T cells / HLA-matched and mismatched PHA blasts; test: HLA restriction mapping with peptide loaded HLA-matched and mismatched PHA blasts; assay type: cell-based, human; settings: epitopes mapped in HNC patient T cells, Table 1
Procedure: as §1

Sequence | T cell specificity [1] | HLA restriction [2] | epitope identified by fine-mapping [1]
HDIILECVY (listed as Human papillomavirus) | CD8^+ |  | 
EKQRHLDKKQRFHNIRGRWTGRCMSCC (listed as Human papillomavirus) | CD4^+ | DRB115:01 | 
WPTTPPRPI (listed as Human papillomavirus) | CD8^+ |  | 
VQSTHVDIRTLEDLLMGTL (listed as Human papillomavirus) | CD4^+ | DQB1*03:01 | 
FELSQMVQW (listed as Human papillomavirus) | CD8^+ |  | 
AFRDLCIVY (listed as Human papillomavirus) | CD8^+ |  | 
TLLQQYCLYL | CD8^+ |  | 
SAFRCFIVY (listed as Human papillomavirus) | CD8^+ |  | 
IRCINCQKPL (listed as Human papillomavirus) | CD8^+ |  | 
LLMGTLGIV | CD8^+ |  | 
YEQLNDSSEEEDEID (listed as Human papillomavirus) | CD4^+ | DQB1*03:01 | 
WKSFFSRTWSRLSLH (listed as Human papillomavirus) | CD4^+ | DRB1*04:01 | 
TPTLHEYMLDLQPETTDLY (listed as Human papillomavirus) | CD4^+ | DQB1*03:01 | 
DRAHYNIVTF (listed as Human papillomavirus) | CD8^+ |  | 
SEIAYKYAQ (listed as Human papillomavirus) | CD8^+ |  | 
TVLELTEVFEF (listed as Human papillomavirus) | CD8^+ |  | 
NLDTASTTL (listed as Human papillomavirus) | CD8^+ |  | 

Sequence | T cell specificity [1] | HLA restriction [2] | epitope identified by fine-mapping [1]
LEDLLMGTLGI (listed as Human papillomavirus) | CD8^+ |  | 
LQDVSLEVYL (listed as Human papillomavirus) | CD8^+ |  | 
KQRFHNIRGRWTGRC |  |  | fine CD4 epitope-mapping of HPV16-E6 pools identified
FRDLCIVYR (listed as Human papillomavirus) | CD8^+ |  | 
TLQDVSLEVYL (listed as Human papillomavirus) | CD8^+ |  | 
VYDYAFRDLCIVYRDGNPYAVCD (listed as Human papillomavirus) | CD4^+ | DRB115:01 | 
HIDYWKHMRLECALY (listed as Human papillomavirus) | CD4^+ | DQB1*03:01 | 
SPATAFTVY (listed as Human papillomavirus) | CD8^+ |  | 
SVDSAPILTAFNSSH (listed as Human papillomavirus) | CD4^+ | DQB1*03:01 | 
TIHDIILECV (listed as Human papillomavirus) | CD8^+ |  | 
RCINCQKPLCPEEKQRHLD (listed as Human papillomavirus) | CD4^+ | DRB115:01 | 
RPFKSNKST (listed as Human papillomavirus) | CD8^+ |  | 
VWEVHAGGQVI (listed as Human papillomavirus) | CD8^+ |  | 
KLPQLCTEL (listed as Human papillomavirus) | CD8^+ |  | 
GRWTGRCMSC (listed as Human papillomavirus) | CD8^+ |  | 
TVLELTEVFEFA (listed as Human papillomavirus) | CD8^+ |  | HPV18-E6 CD^+ T cell epitope
